Columns and labels:
DLD1 NRF2-GOF [1] = settings: 72 h; CellTiter-Glo viability
Summary of the method: (§1)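 Library compounds were tested in 384-well plates at 5 concentrations covering a 10,000-fold span against isogenic DLD1 colorectal cancer cells, NRF2 wild-type or CRISPR gain-of-function, grown in DMEM with 10% FBS. Viability was measured at 72 h with CellTiter-Glo on a Pherastar FS reader, relative to vehicle wells and 100-μM positive-control wells. EC50 and drug sensitivity score (normalised area under the curve) were derived from logistic dose-response curves fitted with four parameters.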

DLD1 NRF2-WT [2] = settings: 72 h; CellTiter-Glo viability
Summary of the method: as §1

DLD1 NRF2-GOF [3] = test: TC50 cytotoxicity; higher = less toxic; settings: 72 h; CellTox Green cytotoxicity
Summary of the method: (§2)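 After growth in DMEM with 10% FBS, NRF2 wild-type and CRISPR-edited isogenic DLD1 cells were seeded in 384-well plates and given library compounds at 5 concentrations across a 10,000-fold range. Fluorescence from CellTox Green was taken on a Pherastar FS reader after 72 h and normalised against vehicle wells and 100-μM positive-control wells. From logistic dose-response fits of cytotoxicity came the TC50 and the drug sensitivity score, a normalised area under the curve.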

DLD1 NRF2-WT [4] = test: TC50 cytotoxicity; higher = less toxic; settings: 72 h; CellTox Green cytotoxicity
Summary of the method: as §2

DLD1 NRF2-GOF [5] = test: drug sensitivity score (DSS) cytotoxicity (DSS score); higher = more toxic; extreme values may be limits of the assay; settings: 72 h; CellTox Green cytotoxicity
Summary of the method: as §2

DLD1 NRF2-WT [6] = test: as above; settings: 72 h; CellTox Green cytotoxicity
Summary of the method: as §2

DLD1 NRF2-GOF [7] = test: drug sensitivity score (DSS) viability (DSS score); higher = more sensitive; extreme values may be limits of the assay; settings: 72 h; CellTiter-Glo viability
Summary of the method: as §1

DLD1 NRF2-WT [8] = test: as above; settings: 72 h; CellTiter-Glo viability
Summary of the method: as §1

Structure (SMILES)	EC50 viability (DLD1 NRF2-GOF [1]) [µM]	EC50 viability (DLD1 NRF2-WT [2]) [µM]	TC50 cytotoxicity (DLD1 NRF2-GOF [3]) [µM]	TC50 cytotoxicity (DLD1 NRF2-WT [4]) [µM]	drug sensitivity score (DLD1 NRF2-GOF [5])	drug sensitivity score (DLD1 NRF2-WT [6])	drug sensitivity score (DLD1 NRF2-GOF [7])	drug sensitivity score (DLD1 NRF2-WT [8])
CCCCOc1nc(N)c2c(n1)N(Cc1cccc(CN3CCCC3)c1)CC(=O)N2 [Vesatolimod]	> 10	> 10	> 10	> 10	0	0	0.1	0
COc1cccc2c1C(=O)c1c(O)c3c(c(O)c1C2=O)C[C@@](O)(/C(CO)=N/NC(=O)CCCCCN1C(=O)C=CC1=O)C[C@@H]3O[C@H]1C[C@H](N)[C@H](O)[C@H](C)O1 [Aldoxorubicin]	0.149	0.137	> 1	> 1	0	0	7.6	8.5
CCC/C=C/C=C/C(=O)O[C@H]1/C(=C/C(=O)OC)C[C@H]2C[C@H]([C@@H](C)O)OC(=O)C[C@H](O)C[C@@H]3C[C@H](OC(C)=O)C(C)(C)[C@](O)(C[C@@H]4C/C(=C/C(=O)OC)C[C@H](/C=C/C(C)(C)[C@]1(O)O2)O4)O3 [Bryostatin 1]	> 0.1	> 0.1	> 0.1	> 0.1	0	0	2.8	0.2
COc1cc(N2CCC(N3CCN(C)CC3)CC2)ccc1Nc1ncnc(Nc2ccccc2S(=O)(=O)C(C)C)n1 [ASP3026]	3.42	3.55	> 10	> 10	0	0	3	3.3
Nc1nc(Cl)nc2c1ncn2[C@H]1C[C@H](O)[C@@H](CO)O1 [Cladribine]	0.145	0.0256	> 1	> 1	0	0	5.5	10.4
O=C(O)CC[C@H]1CC[C@@](c2cc(F)ccc2F)(S(=O)(=O)c2ccc(Cl)cc2)CC1 [MK-0752]	0.0017	> 1	> 1	> 1	0	0	9.1	0.7
C=CC(=O)N1CCC[C@@H](n2nc(-c3ccc(Oc4ccccc4)cc3)c3c(N)ncnc32)C1 [Ibrutinib]	> 1	> 1	> 1	> 1	0	0	0	0.1
CNC(=O)c1cc(Oc2ccc(NC(=O)Nc3ccc(Cl)c(C(F)(F)F)c3)c(F)c2)ccn1 [Regorafenib]	3.71	3.3	> 10	> 10	0	0	2.4	3.8
COc1ccccc1S(=O)(=O)Nc1ccc2c(c1)CN(C)C(=O)N2 [PFI-1]	> 30	1.94	> 30	> 30	0	0	0	3.2
CC(C)[C@H](C(=O)Nc1ccc(C(=O)NO)cc1)c1ccccc1 [AR-42]	1.73	1.26	> 10	1.97	0	4	5.7	9.4
O=C(Nc1ccncc1)C(=O)c1cn(Cc2ccc(Cl)cc2)c2ccccc12 [Indibulin]	0.381	0.283	> 10	> 10	0	0.4	7.8	8.6
C[C@@H]1CN(C(=O)c2ccc(NC(=O)c3cc(O[C@H](C)c4c(Cl)ccc(F)c4Cl)c(N)nn3)cc2)C[C@H](C)N1 [Ensartinib]	> 1	> 1	> 1	> 1	0.2	0.3	0.1	0
O=c1[nH]c(=O)n([C@H]2C[C@H](O)[C@@H](CO)O2)cc1C(F)(F)F [Trifluridine]	2.51	> 10	> 10	> 10	0	0	2.2	0
CCN(CC)CCNC(=O)c1c(C)[nH]c(/C=C2\C(=O)Nc3ccc(F)cc32)c1C [Sunitinib]	0.229	0.381	> 1	> 1	0	0	2.8	1.9
Cc1nc(=O)c2cc(CN(C)c3ccc(C(=O)N[C@@H](CCC(=O)O)C(=O)O)s3)ccc2[nH]1 [Raltitrexed]	0.0083	0.0147	> 1	> 1	0	0	18	16
CC1=C(/C=C/C(C)=C/C=C/C(C)=C/C(=O)O)C(C)(C)CCC1 [Tretinoin]	0.0965	0.001	> 10	> 10	0	0	12.1	17.7
CNC(=O)c1nn(C)c2c1C(C)(C)Cc1cnc(Nc3ccc(N4CCN(C)CC4)cc3)nc1-2 [Milciclib]	1.19	0.926	> 10	> 10	0	0.5	8.5	10.8
COCC[n+]1c2c(n(Cc3cnccn3)c1C)C(=O)c1ccccc1C2=O [Sepantronium bromide]	0.0037	0.0068	0.0275	0.0287	30.9	21.7	41.8	38.7
Cc1sc2c(c1C)C(c1ccc(Cl)cc1)=N[C@@H](CC(=O)NCCCCNC(=O)COc1cccc3c1C(=O)N(C1CCC(=O)NC1=O)C3=O)c1nnc(C)n1-2 (stereo partly specified) [dBET1]	> 10	0.62	> 10	> 10	0	0	0.7	6.5
Cc1cc2c(C(C)C)c(O)c(O)c(C=O)c2c(O)c1-c1c(C)cc2c(C(C)C)c(O)c(O)c(C=O)c2c1O [AT 101]	6.1	4.41	> 100	30.3	1	1.7	14.4	15.9
CN(c1ncccc1CNc1nc(Nc2ccc3c(c2)CC(=O)N3)ncc1C(F)(F)F)S(C)(=O)=O	3.7	2.29	> 10	> 10	0	0	4.1	6.7
CC(C)Nc1cc(-c2c[nH]c(C(=O)N[C@H](CO)c3cccc(Cl)c3)c2)c(Cl)cn1 [Ulixertinib]	1.14	1.47	> 10	> 10	0	0	6.3	6.1
O=C(Nc1cc(Cl)cc2c1[nH]c1cnccc12)c1cccnc1 [PS-1145]	1.34	0.771	> 25	> 25	0	0	5.2	6.2
Nc1ccccc1NC(=O)c1ccc(CNC(=O)OCc2cccnc2)cc1 [Entinostat]	> 10	> 10	> 10	> 10	0	0	0	0
CCNC(=O)c1noc(-c2cc(C(C)C)c(O)cc2O)c1-c1ccc(CN2CCOCC2)cc1 [Luminespib]	0.0128	0.0121	> 1	> 1	0	0	21.4	22
O=C(O)c1ccc(-c2c[nH]c3ncc(-c4ccccc4)cc23)cc1C1CCCC1	0.908	0.0381	3.47	> 10	2	0.4	6.6	12.1
CCOc1cc2ncc(C#N)c(Nc3ccc(OCc4ccccn4)c(Cl)c3)c2cc1NC(=O)/C=C/CN(C)C [Neratinib]	0.305	0.102	> 1	> 1	0	0	2.2	5.7

Second part, led by results:

EC50 viability (DLD1 NRF2-GOF [1]) [µM]	EC50 viability (DLD1 NRF2-WT [2]) [µM]	Structure (SMILES)	TC50 cytotoxicity (DLD1 NRF2-GOF [3]) [µM]	TC50 cytotoxicity (DLD1 NRF2-WT [4]) [µM]	drug sensitivity score (DLD1 NRF2-GOF [5])	drug sensitivity score (DLD1 NRF2-WT [6])	drug sensitivity score (DLD1 NRF2-GOF [7])	drug sensitivity score (DLD1 NRF2-WT [8])
0.0284	0.0267	Nc1ccn([C@@H]2O[C@H](CO)[C@@H](O)C2(F)F)c(=O)n1 [Gemcitabine]	> 1	> 1	0	0	10.7	11.4
> 1	0.0522	NC1(c2ccc(-c3nc4ccn5c(=O)[nH]nc5c4cc3-c3ccccc3)cc2)CCC1 [MK-2206]	> 1	> 1	0	0	0.7	4.3
1.38	4.01	Nc1ncn([C@@H]2O[C@H](CO)[C@@H](O)[C@H]2O)c(=O)n1 [Azacitidine]	> 10	> 10	0	0	3.3	1
0.0253	0.0071	COc1ncc(-c2ccc3nccc(-c4ccnnc4)c3c2)cc1NS(=O)(=O)c1ccc(F)cc1F [Omipalisib]	> 1	> 1	0	0	12.6	18.7
0.27	0.543	COCCOc1cnc2ccn([C@H](C)c3nnc4c(F)cc(-c5cnn(C)c5)cn34)c(=O)c2c1 [AMG-337]	> 10	> 10	0	0	6.6	4.2
1.43	0.0751	Nc1nc(N)c2nc(-c3cccc(O)c3)c(-c3cccc(O)c3)nc2n1 [TG100-115]	> 10	> 10	0	0	3.5	7.1
> 1	> 1	O=C(Nc1ccc(OC(F)(F)Cl)cc1)c1cnc(N2CC[C@@H](O)C2)c(-c2cc[nH]n2)c1 [NVP-ABL001]	> 1	> 1	0	0	2.3	0.1
> 10	0.796	CNC(=O)c1cccc2cc(Oc3ccnc4cc(OCC5(N)CC5)c(OC)cc34)ccc12 [Lucitanib]	> 10	> 10	0	0	1.3	2.7
0.163	1.8	Cc1ccc(NC(=O)c2ccc(CN3CCN(C)CC3)cc2)cc1Nc1nc(-c2cccnc2)cs1 [Masitinib]	> 10	> 10	0	0	14.3	6.7
0.169	0.46	CN(C)C(=O)c1cc2cnc(Nc3ccc(N4CCNCC4)cn3)nc2n1C1CCCC1 [Ribociclib]	> 10	> 10	0	0	6.8	8.2
1.59	1	CS(=O)(=O)N1CCN(Cc2cc3nc(-c4cccc5[nH]ncc45)nc(N4CCOCC4)c3s2)CC1 [Pictilisib]	> 10	> 10	0	0.1	5.8	6.8
0.435	0.001	NC[C@@](O)(c1ccc(Cl)cc1)c1ccc(-c2cn[nH]c2)cc1	> 10	> 10	0	0	10.6	10.8
0.223	0.0984	CC(C)(C)c1cnc(CSc2cnc(NC(=O)C3CCNCC3)s2)o1 [SNS-032]	> 10	> 10	0	0.8	17.5	23.1
1.51	1.21	CCN(CC)CCCC(C)Nc1c2ccc(Cl)cc2nc2ccc(OC)cc12 (stereo unspecified) [Mepacrine]	7.07	5.03	9.9	11.7	18.2	19.4
> 10	> 10	CC[C@@](C)(Nc1ccnc(-c2c[nH]c3ncccc23)n1)C(=O)NCC(F)(F)F [Decernotinib]	> 10	> 10	0	0	0	0
